{
  "source": "patent US4226879A",
  "about": "“Antibiotic composition” (Kyowa Hakko Kogyo Kabushiki Kaisha, priority 1976, dated 1980)",
  "key": {"Eimeria tenella K-2": {"tested_on": "Eimeria tenella K-2", "test": "anticoccidial test in chicks (Example 4)", "conditions": "for Caecal lession (numbers of chicks), +: grade + (light); for Caecal lession (numbers of chicks), + / Caecal lession (numbers of chicks), ++ / Caecal lession (numbers of chicks), +++ / Caecal lession (numbers of chicks), -: groups of 10 chicks; for Caecal lession (numbers of chicks), ++: grade ++ (middle); for Caecal lession (numbers of chicks), +++: grade +++ (heavy); for Caecal lession (numbers of chicks), -: grade - (not infected)"}, "Sarcina lutea PCI 1001": {"tested_on": "Sarcina lutea PCI 1001", "test": "MIC, agar dilution method", "assay_type": "cell-based"}, "Candida albicans": {"tested_on": "Candida albicans", "test": "MIC, agar dilution method", "assay_type": "cell-based", "conditions": "pH 6.8, 27° C. 72 hours"}, "S. aureus FDA 209P JC-1": {"tested_on": "S. aureus FDA 209P JC-1", "test": "MIC, agar dilution method", "assay_type": "cell-based", "conditions": "Staphylococcus aureus, FDA209P; pH 7.0, 37° C., 18 hours"}, "Escherchia coli NIHJ": {"tested_on": "Escherchia coli NIHJ", "test": "MIC, agar dilution method", "assay_type": "cell-based", "conditions": "pH 7.0, 37° C., 18 hours"}, "B. megaterium APF": {"tested_on": "B. megaterium APF", "test": "MIC, agar dilution method", "assay_type": "cell-based", "conditions": "Priestia megaterium; pH 7.0, 37° C., 18 hours"}, "Cryptococcus neoformans": {"tested_on": "Cryptococcus neoformans", "test": "MIC, agar dilution method", "assay_type": "cell-based", "conditions": "pH 6.8, 27° C. 72 hours"}, "Micrococcus flavus 16": {"tested_on": "Micrococcus flavus 16", "test": "MIC, agar dilution method", "assay_type": "cell-based", "conditions": "pH 7.0, 37° C., 18 hours"}, "[1]": {"tested_on": "Aerobacter aerogenes IAM 1183", "test": "MIC, agar dilution method", "assay_type": "cell-based", "conditions": "Klebsiella aerogenes, IAM1183; pH 7.0, 37° C., 18 hours"}, "[2]": {"tested_on": "Staphylococcus aureus FDA 209P", "test": "MIC, agar dilution method", "assay_type": "cell-based", "conditions": "FDA209P, pH 7.0, 37° C., 18 hours"}, "[3]": {"tested_on": "Bacillus subtilis PCI 219", "test": "MIC, agar dilution method", "assay_type": "cell-based", "conditions": "PCI219, pH 7.0, 37° C., 18 hours"}, "Eimeria maxima": {"tested_on": "Eimeria maxima", "test": "anticoccidial activity", "assay_type": "in vivo"}, "[4]": {"tested_on": "Eimeria tenella K-2, E. acervulina and E. maxima", "test": "anticoccidial test in chicks, mixed infection (Example 5)", "assay_type": "in vivo, E. maxima (in chicks)", "parameters": "key to Caecal lession: -: not infected; +: light; ++: middle; +++: heavy", "conditions": "for RIW (ratio of the increase of the body weight): vs healthy chicks", "procedure": "The results are shown in Table 5 where the ratio of the increase of the body weight (RIW) is calculated as follows: (RIW (%)=[weight at the completion of the test (in average)]/[weight of healthy chicks (control) in average]×100%."}},
  "data": [
    {"smiles": "O=C(/C=C/C=C/C=C/C1CCCCC1)NC1=CC(O)(/C=C/C=C/C=C/C(=O)NC2=C(O)CCC2=O)C2OC2C1=O", "note": "(stereo not drawn) [AM-1042]", "values": [
      {"measurement": "Survival ratio", "setting": "Eimeria tenella K-2; 0.00375 % in diet", "result": 90, "unit": "%"},
      {"measurement": "Survival ratio", "setting": "Eimeria tenella K-2; 0.005 % in diet", "result": 90, "unit": "%"},
      {"measurement": "Survival ratio", "setting": "Eimeria tenella K-2; 0.0075 % in diet", "result": 100, "unit": "%"},
      {"measurement": "Survival ratio", "setting": "Eimeria tenella K-2; 0.01 % in diet", "result": 100, "unit": "%"},
      {"measurement": "Survival ratio", "setting": "Eimeria tenella K-2; 0.015 % in diet", "result": 100, "unit": "%"},
      {"measurement": "Survival ratio", "setting": "Eimeria tenella K-2; 0.02 % in diet", "result": 100, "unit": "%"},
      {"measurement": "Survival ratio", "setting": "Eimeria tenella K-2; 0.03 % in diet", "result": 100, "unit": "%"},
      {"measurement": "Caecal lession (numbers of chicks), +", "setting": "Eimeria tenella K-2; 0.00375 % in diet", "result": "1 numbers of chicks"},
      {"measurement": "Caecal lession (numbers of chicks), +", "setting": "Eimeria tenella K-2; 0.005 % in diet", "result": "3 numbers of chicks"},
      {"measurement": "Caecal lession (numbers of chicks), +", "setting": "Eimeria tenella K-2; 0.0075 % in diet", "result": "5 numbers of chicks"},
      {"measurement": "Caecal lession (numbers of chicks), +", "setting": "Eimeria tenella K-2; 0.01 % in diet", "result": "2 numbers of chicks"},
      {"measurement": "Caecal lession (numbers of chicks), ++", "setting": "Eimeria tenella K-2; 0.00375 % in diet", "result": "4 numbers of chicks"},
      {"measurement": "Caecal lession (numbers of chicks), ++", "setting": "Eimeria tenella K-2; 0.005 % in diet", "result": "4 numbers of chicks"},
      {"measurement": "Caecal lession (numbers of chicks), ++", "setting": "Eimeria tenella K-2; 0.0075 % in diet", "result": "2 numbers of chicks"},
      {"measurement": "Caecal lession (numbers of chicks), +++", "setting": "Eimeria tenella K-2; 0.00375 % in diet", "result": "5 numbers of chicks"},
      {"measurement": "Caecal lession (numbers of chicks), +++", "setting": "Eimeria tenella K-2; 0.005 % in diet", "result": "3 numbers of chicks"},
      {"measurement": "Caecal lession (numbers of chicks), -", "setting": "Eimeria tenella K-2; 0.0075 % in diet", "result": "3 numbers of chicks"},
      {"measurement": "Caecal lession (numbers of chicks), -", "setting": "Eimeria tenella K-2; 0.01 % in diet", "result": "8 numbers of chicks"},
      {"measurement": "Caecal lession (numbers of chicks), -", "setting": "Eimeria tenella K-2; 0.015 % in diet", "result": "10 numbers of chicks"},
      {"measurement": "Caecal lession (numbers of chicks), -", "setting": "Eimeria tenella K-2; 0.02 % in diet", "result": "10 numbers of chicks"},
      {"measurement": "Caecal lession (numbers of chicks), -", "setting": "Eimeria tenella K-2; 0.03 % in diet", "result": "10 numbers of chicks"},
      {"measurement": "activity upon Sarcina lutea", "setting": "Sarcina lutea PCI 1001", "result": "active"},
      {"measurement": "MIC", "setting": "Sarcina lutea PCI 1001; Micrococcus luteus, PCI1001, pH 7.0, 37° C., 18 hours", "result": 6.2, "unit": "µg/mL"},
      {"measurement": "MIC", "setting": "Candida albicans", "result": "> 100", "unit": "µg/mL"},
      {"measurement": "MIC", "setting": "S. aureus FDA 209P JC-1", "result": 0.7, "unit": "µg/mL"},
      {"measurement": "MIC", "setting": "Escherchia coli NIHJ", "result": 100, "unit": "µg/mL"},
      {"measurement": "MIC", "setting": "B. megaterium APF", "result": 6.2, "unit": "µg/mL"},
      {"measurement": "MIC", "setting": "Cryptococcus neoformans", "result": "> 100", "unit": "µg/mL"},
      {"measurement": "MIC", "setting": "Micrococcus flavus 16", "result": 1.5, "unit": "µg/mL"},
      {"measurement": "MIC", "setting": "[1]", "result": 100, "unit": "µg/mL"},
      {"measurement": "MIC", "setting": "[2]", "result": 3.1, "unit": "µg/mL"},
      {"measurement": "MIC", "setting": "[3]", "result": 3.1, "unit": "µg/mL"},
      {"measurement": "activity upon coccidiosis", "setting": "Eimeria maxima", "result": "significantly active"},
      {"measurement": "Caecal lession", "setting": "[4]; 0.005 % AM-1042 (Test-5)", "result": "+"},
      {"measurement": "Survival ratio", "setting": "[4]; 0.005 % AM-1042 (Test-5)", "result": 90, "unit": "%"},
      {"measurement": "RIW (ratio of the increase of the body weight)", "setting": "[4]; 0.005 % AM-1042 (Test-5)", "result": 98.7, "unit": "%"},
      {"measurement": "Caecal lession", "setting": "[4]; 0.0075 % AM-1042 (Test-4)", "result": "-"},
      {"measurement": "Survival ratio", "setting": "[4]; 0.0075 % AM-1042 (Test-4)", "result": 100, "unit": "%"},
      {"measurement": "RIW (ratio of the increase of the body weight)", "setting": "[4]; 0.0075 % AM-1042 (Test-4)", "result": 99.9, "unit": "%"},
      {"measurement": "Caecal lession", "setting": "[4]; 0.01 % AM-1042 (Test-3)", "result": "-"},
      {"measurement": "Survival ratio", "setting": "[4]; 0.01 % AM-1042 (Test-3)", "result": 100, "unit": "%"},
      {"measurement": "RIW (ratio of the increase of the body weight)", "setting": "[4]; 0.01 % AM-1042 (Test-3)", "result": 100.8, "unit": "%"},
      {"measurement": "Caecal lession", "setting": "[4]; 0.015 % AM-1042 (Test-2)", "result": "-"},
      {"measurement": "Survival ratio", "setting": "[4]; 0.015 % AM-1042 (Test-2)", "result": 100, "unit": "%"},
      {"measurement": "RIW (ratio of the increase of the body weight)", "setting": "[4]; 0.015 % AM-1042 (Test-2)", "result": 100.5, "unit": "%"},
      {"measurement": "Caecal lession", "setting": "[4]; 0.02 % AM-1042 (Test-1)", "result": "-"},
      {"measurement": "Survival ratio", "setting": "[4]; 0.02 % AM-1042 (Test-1)", "result": 100, "unit": "%"},
      {"measurement": "RIW (ratio of the increase of the body weight)", "setting": "[4]; 0.02 % AM-1042 (Test-1)", "result": 100.2, "unit": "%"}
    ]}
  ]
}
